Test results taken from PubChem BioAssay (NCI).
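GI50 = concentration required for 50% inhibition of growth. TGI: concentration producing complete growth inhibition.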

Key:
Experiment in all cases: DTP human tumour cell line panel, 384-well format
786-0 renal = tested on: 786-0 renal
A498 renal = tested on: A498 renal
A549 NSCLC = tested on: A549 NSCLC
ACHN renal = tested on: ACHN renal
BT-549 breast = tested on: BT-549 breast
CAKI-1 renal = tested on: CAKI-1 renal
CCRF-CEM leukemia = tested on: CCRF-CEM leukemia
COLO 205 colon = tested on: COLO 205 colon
DU-145 prostate = tested on: DU-145 prostate
EKVX NSCLC = tested on: EKVX NSCLC
HCC-2998 colon = tested on: HCC-2998 colon
HCT-116 colon = tested on: HCT-116 colon
HCT-15 colon = tested on: HCT-15 colon
HL-60(TB) leukemia = tested on: HL-60(TB) leukemia
HOP-62 NSCLC = tested on: HOP-62 NSCLC
HOP-92 NSCLC = tested on: HOP-92 NSCLC
HS 578T breast = tested on: HS 578T breast
HT29 colon = tested on: HT29 colon
IGROV1 ovarian = tested on: IGROV1 ovarian
K-562 leukemia = tested on: K-562 leukemia
KM12 colon = tested on: KM12 colon
LOX IMVI melanoma = tested on: LOX IMVI melanoma
M14 melanoma = tested on: M14 melanoma
MALME-3M melanoma = tested on: MALME-3M melanoma
MCF7 breast = tested on: MCF7 breast
MDA-MB-231 breast = tested on: MDA-MB-231 breast
MDA-MB-435 melanoma = tested on: MDA-MB-435 melanoma
MDA-MB-468 breast = tested on: MDA-MB-468 breast
MOLT-4 leukemia = tested on: MOLT-4 leukemia
NCI-H226 lung = tested on: NCI-H226 lung
NCI-H23 lung = tested on: NCI-H23 lung
NCI-H322M lung = tested on: NCI-H322M lung
NCI-H460 NSCLC = tested on: NCI-H460 NSCLC
NCI-H522 lung = tested on: NCI-H522 lung
NCI/ADR-RES ovarian = tested on: NCI/ADR-RES ovarian
OVCAR-3 ovarian = tested on: OVCAR-3 ovarian
OVCAR-4 ovarian = tested on: OVCAR-4 ovarian
OVCAR-5 ovarian = tested on: OVCAR-5 ovarian
OVCAR-8 ovarian = tested on: OVCAR-8 ovarian
PC-3 prostate = tested on: PC-3 prostate
RPMI-8226 leukemia = tested on: RPMI-8226 leukemia
RXF 393 renal = tested on: RXF 393 renal
SF-268 CNS = tested on: SF-268 CNS
SF-295 CNS = tested on: SF-295 CNS
SF-539 CNS = tested on: SF-539 CNS
SK-MEL-28 melanoma = tested on: SK-MEL-28 melanoma
SK-MEL-5 melanoma = tested on: SK-MEL-5 melanoma
SK-OV-3 ovarian = tested on: SK-OV-3 ovarian
SN12C renal = tested on: SN12C renal
SNB-19 CNS = tested on: SNB-19 CNS
SNB-75 CNS = tested on: SNB-75 CNS
SW-620 colon = tested on: SW-620 colon
T-47D breast = tested on: T-47D breast
TK-10 renal = tested on: TK-10 renal
U251 glioblastoma = tested on: U251 glioblastoma
UACC-257 melanoma = tested on: UACC-257 melanoma
UACC-62 melanoma = tested on: UACC-62 melanoma
UO-31 renal = tested on: UO-31 renal

SMILES: COc1cc2nc(-c3cc(F)ccc3O)nc(N[C@@H]3CNC[C@H]3C(C)(C)O)c2cc1OC
- GI50 ([…]-0 renal): 1530 nM
- TGI (786-0 renal): 2870 nM
- GI50 (A498 renal): 1650 nM
- TGI (A498 renal): 3020 nM
- GI50 (A549 NSCLC): 1510 nM
- TGI (A549 NSCLC): 2910 nM
- GI50 (ACHN renal): 1750 nM
- TGI (ACHN renal): 3180 nM
- GI50 (BT-549 breast): 1310 nM
- TGI (BT-549 breast): 2590 nM
- GI50 (CAKI-1 renal): 1350 nM
- TGI (CAKI-1 renal): 2660 nM
- GI50 (CCRF-CEM leukemia): 1410 nM
- TGI (CCRF-CEM leukemia): 2730 nM
- GI50 (COLO 205 colon): 1240 nM
- TGI (COLO 205 colon): 2520 nM
- GI50 (DU-145 prostate): 1570 nM
- TGI (DU-145 prostate): 2990 nM
- GI50 (EKVX NSCLC): 1460 nM
- TGI (EKVX NSCLC): 2790 nM
- GI50 (HCC-2998 colon): 970 nM
- TGI (HCC-2998 colon): 2170 nM
- GI50 (HCT-116 colon): 1110 nM
- TGI (HCT-116 colon): 2370 nM
- GI50 (HCT-15 colon): 1910 nM
- TGI (HCT-15 colon): 3370 nM
- GI50 (HL-60(TB) leukemia): 1820 nM
- TGI (HL-60(TB) leukemia): 3240 nM
- GI50 (HOP-62 NSCLC): 1220 nM
- TGI (HOP-62 NSCLC): 2490 nM
- GI50 (HOP-92 NSCLC): 1150 nM
- TGI (HOP-92 NSCLC): 2380 nM
- GI50 (HS 578T breast): 1740 nM
- TGI (HS 578T breast): 3130 nM
- GI50 (HT29 colon): 1650 nM
- TGI (HT29 colon): 3060 nM
- GI50 (IGROV1 ovarian): 507 nM
- TGI (IGROV1 ovarian): 1640 nM
- GI50 (K-562 leukemia): 1270 nM
- TGI (K-562 leukemia): 2550 nM
- GI50 (KM12 colon): 1340 nM
- TGI (KM12 colon): 2640 nM
- GI50 (LOX IMVI melanoma): 1390 nM
- TGI (LOX IMVI melanoma): 2710 nM
- GI50 (M14 melanoma): 1830 nM
- TGI (M14 melanoma): 3250 nM
- GI50 (MALME-3M melanoma): 1600 nM
- TGI (MALME-3M melanoma): 2960 nM
- GI50 (MCF7 breast): 1570 nM
- TGI (MCF7 breast): 2950 nM
- GI50 (MDA-MB-231 breast): 1400 nM
- TGI (MDA-MB-231 breast): 2700 nM
- GI50 (MDA-MB-435 melanoma): 1950 nM
- TGI (MDA-MB-435 melanoma): 3390 nM
- GI50 (MDA-MB-468 breast): 1770 nM
- TGI (MDA-MB-468 breast): 3170 nM
- GI50 (MOLT-4 leukemia): 1530 nM
- TGI (MOLT-4 leukemia): 2870 nM
- GI50 (NCI-H226 lung): 1400 nM
- TGI (NCI-H226 lung): 2760 nM
- GI50 (NCI-H23 lung): 1440 nM
- TGI (NCI-H23 lung): 2770 nM
- GI50 (NCI-H322M lung): 1630 nM
- TGI (NCI-H322M lung): 3020 nM
- GI50 (NCI-H460 NSCLC): 1470 nM
- TGI (NCI-H460 NSCLC): 2890 nM
- GI50 (NCI-H522 lung): 1040 nM
- TGI (NCI-H522 lung): 2220 nM
- GI50 (NCI/ADR-RES ovarian): 2240 nM
- TGI (NCI/ADR-RES ovarian): 4990 nM
- GI50 (OVCAR-3 ovarian): 1820 nM
- TGI (OVCAR-3 ovarian): 3230 nM
- GI50 (OVCAR-4 ovarian): 2390 nM
- TGI (OVCAR-4 ovarian): 3880 nM
- GI50 (OVCAR-5 ovarian): 1670 nM
- TGI (OVCAR-5 ovarian): 3110 nM
- GI50 (OVCAR-8 ovarian): 1690 nM
- TGI (OVCAR-8 ovarian): 3090 nM
- GI50 (PC-3 prostate): 1560 nM
- TGI (PC-3 prostate): 2920 nM
- GI50 (RPMI-8226 leukemia): 1830 nM
- TGI (RPMI-8226 leukemia): 3250 nM
- GI50 (RXF 393 renal): 1560 nM
- TGI (RXF 393 renal): 2910 nM
- GI50 (SF-268 CNS): 434 nM
- TGI (SF-268 CNS): 1620 nM
- GI50 (SF-295 CNS): 1880 nM
- TGI (SF-295 CNS): 3300 nM
- GI50 (SF-539 CNS): 1260 nM
- TGI (SF-539 CNS): 2540 nM
- GI50 (SK-MEL-28 melanoma): 2010 nM
- TGI (SK-MEL-28 melanoma): 3440 nM
- GI50 (SK-MEL-5 melanoma): 1500 nM
- TGI (SK-MEL-5 melanoma): 2850 nM
- GI50 (SK-OV-3 ovarian): 1820 nM
- TGI (SK-OV-3 ovarian): 3240 nM
- GI50 (SN12C renal): 1480 nM
- TGI (SN12C renal): 2810 nM
- GI50 (SNB-19 CNS): 1790 nM
- TGI (SNB-19 CNS): 3210 nM
- GI50 (SNB-75 CNS): 1250 nM
- TGI (SNB-75 CNS): 2510 nM
- GI50 (SW-620 colon): 1820 nM
- TGI (SW-620 colon): 3240 nM
- GI50 (T-47D breast): 2460 nM
- TGI (T-47D breast): 3940 nM
- GI50 (TK-10 renal): 1630 nM
- TGI (TK-10 renal): 3050 nM
- GI50 (U251 glioblastoma): 1860 nM
- TGI (U251 glioblastoma): 3280 nM
- GI50 (UACC-257 melanoma): 1710 nM
- TGI (UACC-257 melanoma): 3100 nM
- GI50 (UACC-62 melanoma): 1620 nM
- TGI (UACC-62 melanoma): 2990 nM
- GI50 (UO-31 renal): 1810 nM
- TGI (UO-31 renal): 3220 nM
